{FAM} = fluorescein (FAM) label Where only a bound is given, the exact number is not on record here.

For series [1] the following is noted: in vivo, sc; cited from earlier work.
For series [2] the following is noted: human, in vivo, iv; cited from earlier work.
Series [3] concerns A549 NSCLC xenograft tumors. Nature of the series: Tumor growth of NSCLC xenografts under G3139 dosing schedules (Example 4). The class given is in vivo, mice. How it is done:
In vivo tumor model: NSCLC xenograft tumors were established in the flank of male athymic nude mice by injecting subcutaneously 5 to 9×10^6 A549 tumor cells. […] Twenty mg/kg injections every other days for 4 weeks (total 14 days) were also carried. At 30 mg/kg and 40 mg/kg, mice were injected every two- or three-day intervals respectively. (FIG. 6). The tumor growth were measured 15 - 55 days post-implantation and the tumor volumes were calculated based on the formula: [(width)^2×length]/2. […] Tumors in mice injected with higher doses but interminttently with 2-3 days intervals also grew slower than mice treated with daily doses at lower doses.

Series [4] deals with PC-3-Bcl-2 xenograft tumors. The note with it: mouse, in vivo.
Experimental: When the average tumor size was 65 mm^3, animals were randomized and the right flank of the xenograft tumor bearing mice were pre-treated with 5 Gy X-ray prior to administration of fluoresceinated G3139 oligonucleotide intravenously at a low dose of 6 mg/kg, daily for 5 days (top left panel); at a high dose of 10 mg/kg on given intermittently on days 1, 3, and 5 (top middle panel); a single dose of 30 mg/kg on the same day of X-ray pre-treatment (top right panel); and non-treated left flank bearing xenograft tumor (bottom 3 panels). Each mouse received a total dose of 30 mg/kg fluorescent G3139.
On day 8, animals were sacrificed, subcutaneous and organs were resected, and counterstained with DAPI as an internal staining control for nucleus staining. The resected tissues were processed as in Example 1 described above and fluorescence intensity was recorded using a stereomicroscope (Zeiss, 40) and spot camera (Qimaging). The signal intensity was recorded in three areas of each sample and quantified using MCID Elite (Imaging Research) and averaged to yield the reported intensities.

For oblimersen [G3139], in series [1], the “mean plasma half-life for elimination” value was 7.46 h and the “steady state plasma levels observed after the beginning of infusion” value is 48 h. For the same substance, in series [2], the plasma half life entry is recorded as “about 60 minutes” and the “time until plasma concentration becomes undetectable” value was ≤ 4 h. Besides, the tumor growth entry in series [3] (20 mg/kg IP every other day vs 10 mg/kg daily (total 280 mg/kg), 15-55 days post-implantation) is given as “grew slower”. Besides, the tumor growth result in series [3] (higher doses intermittently at 2-3 day intervals vs daily lower doses) is listed as “grew slower”. Further, the “persistence of the oligonucleotide in tumor after administration of radiation and G3139” value in series [4] (iv, 30 mg/kg) is on record as 7 days.
“FAM-G3139: fluorescent G3139, F - TCTCCCAGCGTGCGCCAT-3′, phosphorothioate oligonucleotide targeting bcl-2 (all phosphorothioate, 5' {FAM}, sugars by position and methylation of C not given here)”: the “staining of tumor cells” value in series [4] is on record as “no visible staining”.

These data come from patent publication US20070270371A1, “Dosing and scheduling of oligomers” (priority 2006, published 2007).
